Activity calls are given as the source filed them. The rule behind the calls is not given here.
Columns and labels:
[1] = test system: 2008; assay: Induction of morphological changes in human OV2008 cells at 0.1 to 3 uM after 68 hrs by microscopic method; format: functional, cell-based
[2] = test system: 2008; assay: Cell cycle arrest in human OV2008 cells assessed as accumulation at subG1 phase at 1 uM measured after overnight incubation by propidium iodide staining-based flow cytometry (reference value: 2.64%); format: functional
[3] = test system: 2008; assay: Induction of apoptosis in human OV2008 cells assessed as necrotic cells at 1 uM measured after overnight incubation by mitotracker red/alexa fluor-488 Annexin V staining-based flow cytometry (reference value: 6.31%); format: functional
[4] = test system: A2780; assay: Cell cycle arrest in human A2780 cells assessed as accumulation at subG1 phase at 1 uM measured after overnight incubation by propidium iodide staining-based flow cytometry (reference value: 8.88%); format: functional
[5] = test system: HCT-116; assay: Cell cycle arrest in human HCT116 cells assessed as accumulation at G1 phase at 2 uM measured after overnight incubation by propidium iodide staining-based flow cytometry (reference value: 63.5%); format: functional
[6] = test system: A2780; assay: Antiproliferative activity against human A2780 cells after 72 hrs by MTT assay; format: functional, cell-based; conditions: A2780, 72 h
[7] = test system: 2008; assay: Induction of apoptosis in human OV2008 cells assessed as necrotic cells at 2 uM measured after overnight incubation by mitotracker red/alexa fluor-488 Annexin V staining-based flow cytometry (reference value: 6.31%); format: functional
[8] = test system: A2780; assay: Cell cycle arrest in human A2780 cells assessed as accumulation at S phase at 1 uM measured after overnight incubation by propidium iodide staining-based flow cytometry (reference value: 15.2%); format: functional
[9] = test system: A2780; assay: Cell cycle arrest in human A2780 cells assessed as accumulation at subG1 phase at 2 uM measured after overnight incubation by propidium iodide staining-based flow cytometry (reference value: 8.88%); format: functional
[10] = test system: HCT-116; assay: Cell cycle arrest in human HCT116 cells assessed as accumulation at G1 phase at 1 uM measured after overnight incubation by propidium iodide staining-based flow cytometry (reference value: 63.5%); format: functional
[11] = test system: 2008; assay: Induction of apoptosis in human OV2008 cells assessed as cell shrinkage at 0.5 to 2 uM measured after overnight incubation by DAPI-staining based microscopy; format: functional
[12] = test system: HCT-116; assay: Cell cycle arrest in human HCT116 cells assessed as accumulation at […] at 2 uM measured after overnight incubation by propidium iodide staining-based flow cytometry (reference value: 9.70%); format: functional
[13] = test system: HCT-116; assay: Induction of mitotic catastrophe in human HCT116 cells assessed as formation of large with flattened cells at 0.5 to 2 uM measured after overnight incubation by DAPI-staining based microscopy; format: functional, cell-based
[14] = test system: HCT-116; assay: Induction of mitotic catastrophe in human HCT116 cells assessed as formation of de-condensed multiple micronuclei at 0.5 to 2 uM measured after overnight incubation by DAPI-staining based microscopy; format: functional, cell-based
[15] = test system: 2008; assay: Cell cycle arrest in human OV2008 cells assessed as accumulation at G2 phase at 1 uM measured after overnight incubation by propidium iodide staining-based flow cytometry (reference value: 26.9%); format: functional
[16] = test system: A2780; assay: Cell cycle arrest in human A2780 cells assessed as accumulation at S phase at 2 uM measured after overnight incubation by propidium iodide staining-based flow cytometry (reference value: 15.2%); format: functional
[17] = test system: A2780; assay: Cell cycle arrest in human A2780 cells assessed as accumulation at G1 phase at 2 uM measured after overnight incubation by propidium iodide staining-based flow cytometry (reference value: 51.1%); format: functional
[18] = Selectivity index, ratio of IC50 for CHO cells to IC50 for human A2780 cells; format: toxicity; conditions: Chinese hamster (CHO cells), CHO cells versus A2780 cells, read-out: Ratio IC50
[19] = test system: 2008; assay: Cell cycle arrest in human OV2008 cells assessed as accumulation at S phase at 1 uM measured after overnight incubation by propidium iodide staining-based flow cytometry (reference value: 10.8%); format: functional
[20] = Antiproliferative activity against human GBM10 cells after 72 hrs by MTT assay; format: functional, cell-based; conditions: GBM10, 72 h
[21] = test system: 2008; assay: Induction of mitotic catastrophe in human OV2008 cells assessed as formation of de-condensed multiple micronuclei at 0.5 to 2 uM measured after overnight incubation by DAPI-staining based microscopy; format: functional, cell-based
[22] = Selectivity index, ratio of IC50 for CHO cells to IC50 for human HCT116 cells; format: toxicity; conditions: Chinese hamster (CHO cells), CHO cells versus HCT116 cells, read-out: Ratio IC50
[23] = test system: 2008; assay: Induction of apoptosis in human OV2008 cells assessed as early apoptotic cells at 1 uM measured after overnight incubation by mitotracker red/alexa fluor-488 Annexin V staining-based flow cytometry (reference value: 12.9%); format: functional
[24] = test system: HCT-116; assay: Induction of apoptosis in human HCT116 cells assessed as necrotic cells at 2 uM measured after overnight incubation by mitotracker red/alexa fluor-488 Annexin V staining-based flow cytometry (reference value: 2.67%); format: functional
[25] = test system: HCT-116; assay: Inhibition of colony formation in human HCT116 cells at 1 to 2 uM after 24 hrs by crystal violet dye based assay; format: functional, cell-based
[26] = test system: HCT-116; assay: Induction of apoptosis in human HCT116 cells assessed as condensation of nuclei at 0.5 to 2 uM measured after overnight incubation by DAPI-staining based microscopy; format: functional, cell-based
[27] = test system: HCT-116; assay: Induction of apoptosis in human HCT116 cells assessed as late apoptotic cells at 1 uM measured after overnight incubation by mitotracker red/alexa fluor-488 Annexin V staining-based flow cytometry (reference value: 0%); format: functional
[28] = Selectivity index, ratio of IC50 for CHO cells to IC50 for human LN229 cells; format: toxicity; conditions: Chinese hamster (CHO cells), CHO cells versus LN229 cells, read-out: Ratio IC50
[29] = test system: HCT-116; assay: Cell cycle arrest in human HCT116 cells assessed as accumulation at subG1 phase at 2 uM measured after overnight incubation by propidium iodide staining-based flow cytometry (reference value: 0.154%); format: functional
[30] = test system: A2780; assay: Inhibition of colony formation in human A2780 cells at 1 to 2 uM after 24 hrs by crystal violet dye based assay; format: functional, cell-based
[31] = test system: HCT-116; assay: Antiproliferative activity against human HCT116 cells after 72 hrs by MTT assay; format: functional, cell-based; conditions: HCT-116, 72 h
[32] = test system: HCT-116; assay: Induction of apoptosis in human HCT116 cells assessed as viable cells at 1 uM measured after overnight incubation by mitotracker red/alexa fluor-488 Annexin V staining-based flow cytometry (reference value: 89%); format: functional; conditions: read-out: Activity
[33] = test system: 2008; assay: Cell cycle arrest in human OV2008 cells assessed as accumulation at G1 phase at 1 uM measured after overnight incubation by propidium iodide staining-based flow cytometry (reference value: 52.6%); format: functional
[34] = test system: 2008; assay: Induction of mitotic catastrophe in human OV2008 cells assessed as formation of large with flattened cells at 0.5 to 2 uM measured after overnight incubation by DAPI-staining based microscopy; format: functional, cell-based
[35] = test system: A2780; assay: Induction of apoptosis in human A2780 cells assessed as late apoptotic cells at 1 uM measured after overnight incubation by mitotracker red/alexa fluor-488 Annexin V staining-based flow cytometry (reference value: 0.015%); format: functional
[36] = test system: 2008; assay: Cell cycle arrest in human OV2008 cells assessed as accumulation at G2 phase at 2 uM measured after overnight incubation by propidium iodide staining-based flow cytometry (reference value: 26.9%); format: functional

With COc1ccc(-c2nc(O)c3c4c(sc3n2)CCCC4)cc1 the Activity [1] was “Active”, the Activity [2] was 4.17% and the Activity [3] was 4.31%. It also gave an Activity [4] of 7.99%, an Activity [5] of 29.5% and an IC50 [6] of 1200 nM. For the same compound, the Activity [7] was 3.79%, the Activity [8] was 10.4% and the Activity [9] was 7.54%. The Activity [10] was 37.5%, the Activity [11] was “Active” and the Activity [12] was 10.6%. The Activity [13] was “Active”, the Activity [14] was “Active” and the Activity [15] was 44.6%. For the same compound, the Activity [16] was 9.02%, the Activity [17] was 15.5% and the selectivity ratio [18] was 17 to 28. For the same compound, the Activity [19] was 20.4%, the IC50 [20] was 800 nM and the Activity [21] was “Active”. It also gave a selectivity ratio [22] of 17 to 28, an Activity [23] of 20.3% and an Activity [24] of 3.04%. The inhibition [25] was “Dose-dependent effect”, the Activity [26] was “Active” and the Activity [27] was 0%. The selectivity ratio [28] was 17 to 28, the Activity [29] was 0.097% and the inhibition [30] was “Dose-dependent effect”. The IC50 [31] was 600 nM, the viability at 1 µM [32] was 87% and the Activity [33] was 19.5%. For the same compound, the Activity [34] was “Active”, the Activity [35] was 0% and the Activity [36] was 41.1%.
